Measured values: ChEMBL document CHEMBL4699558, “Lead optimization of 8-(methylamino)-2-oxo-1,2-dihydroquinolines as bacterial type II topoisomerase inhibitors” (Bioorg Med Chem, 2020)
In brackets after ≈: the same amount, converted by molar mass.

Tests used:
[1] = target: T1, Cytoplasmic tyrosine-protein kinase BMX (Homo sapiens) (UniProt P51813); assay: Inhibition of recombinant BMX (unknown origin) at 10 uM using fluorescence-labeled peptide as substrate incubated for 15 mins followed by substrate addition and measured after 90 mins by electrophoretic mobility assay relative to control; conditions: time 105.0 min
T1 sequence (whole entry): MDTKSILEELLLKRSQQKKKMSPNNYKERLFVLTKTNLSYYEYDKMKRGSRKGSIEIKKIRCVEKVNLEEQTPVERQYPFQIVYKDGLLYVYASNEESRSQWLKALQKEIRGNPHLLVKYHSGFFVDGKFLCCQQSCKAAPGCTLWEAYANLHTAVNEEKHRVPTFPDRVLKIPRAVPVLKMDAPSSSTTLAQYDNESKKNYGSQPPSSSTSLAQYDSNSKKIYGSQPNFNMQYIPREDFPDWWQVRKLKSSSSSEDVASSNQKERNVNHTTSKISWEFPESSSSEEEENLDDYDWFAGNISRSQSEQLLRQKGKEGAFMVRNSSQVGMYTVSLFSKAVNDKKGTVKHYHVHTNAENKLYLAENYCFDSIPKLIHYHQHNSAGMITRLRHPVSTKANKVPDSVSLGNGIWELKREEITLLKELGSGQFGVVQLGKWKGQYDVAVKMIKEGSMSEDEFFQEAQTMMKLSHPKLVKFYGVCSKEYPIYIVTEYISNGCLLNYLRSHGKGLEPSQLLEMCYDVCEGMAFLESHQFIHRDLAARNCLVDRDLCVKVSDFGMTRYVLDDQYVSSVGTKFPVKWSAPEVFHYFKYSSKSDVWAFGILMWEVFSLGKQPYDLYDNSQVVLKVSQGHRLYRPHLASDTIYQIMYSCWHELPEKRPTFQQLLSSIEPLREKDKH

[2] = system: Staphylococcus aureus; assay: Antibacterial activity against Methicillin-resistant Staphylococcus aureus by CLSI method; assay type: functional
[3] = system: Staphylococcus aureus; assay: Antibacterial activity against hospital-acquired Methicillin -resistant Staphylococcus aureus ATCC BAA-811 by CLSI method; assay type: functional
[4] = system: Staphylococcus aureus; assay: Antibacterial activity against community-acquired Methicillin -resistant Staphylococcus aureus ATCC BAA-1556 by CLSI method; assay type: functional
[5] = target: DNA gyrase (Escherichia coli, UniProt P0AES4+P0AES6); assay: Inhibition of Escherichia coli DNA gyrase by measuring supercoiling activity incubated for 60 mins by fluorescence based assay; assay type: protein-complex assay
[6] = Inhibition of Escherichia coli topoisomerase IV by measuring relaxation activity incubated for 30 mins by fluorescence based assay
[7] = system: Escherichia coli; assay: Antibacterial activity against Escherichia coli ATCC 25922 by CLSI method; assay type: functional
[8] = system: Staphylococcus aureus; assay: Antibacterial activity against Staphylococcus aureus ATCC 29213 by CLSI method; assay type: functional
[9] = system: Enterococcus faecium; assay: Antibacterial activity against Enterococcus faecium ATCC 35667 by CLSI method; assay type: functional
[10] = system: Enterococcus faecium; assay: Antibacterial activity against vancomycin-resistant Enterococcus faecium ATCC 51559 by CLSI method; assay type: functional
[11] = system: Enterococcus faecalis; assay: Antibacterial activity against Enterococcus faecalis ATCC 29212 by CLSI method; assay type: functional
[12] = system: Enterococcus faecalis; assay: Antibacterial activity against vancomycin-resistant Enterococcus faecalis ATCC 51575 by CLSI method; assay type: functional
[13] = system: Streptococcus pneumoniae; assay: Antibacterial activity against Streptococcus pneumoniae ATCC 49619 by CLSI method; assay type: functional
[14] = system: Streptococcus anginosus; assay: Antibacterial activity against Streptococcus anginosus ATCC 33397 by CLSI method; assay type: functional
[15] = system: Haemophilus influenzae; assay: Antibacterial activity against Haemophilus influenzae ATCC 43095 by CLSI method; assay type: functional
[16] = target: DNA topoisomerase 2-alpha (Homo sapiens, UniProt P11388); assay: Inhibition of human topoisomerase 2alpha; assay type: ADME
DNA topoisomerase 2-alpha, sequence (P11388 whole entry): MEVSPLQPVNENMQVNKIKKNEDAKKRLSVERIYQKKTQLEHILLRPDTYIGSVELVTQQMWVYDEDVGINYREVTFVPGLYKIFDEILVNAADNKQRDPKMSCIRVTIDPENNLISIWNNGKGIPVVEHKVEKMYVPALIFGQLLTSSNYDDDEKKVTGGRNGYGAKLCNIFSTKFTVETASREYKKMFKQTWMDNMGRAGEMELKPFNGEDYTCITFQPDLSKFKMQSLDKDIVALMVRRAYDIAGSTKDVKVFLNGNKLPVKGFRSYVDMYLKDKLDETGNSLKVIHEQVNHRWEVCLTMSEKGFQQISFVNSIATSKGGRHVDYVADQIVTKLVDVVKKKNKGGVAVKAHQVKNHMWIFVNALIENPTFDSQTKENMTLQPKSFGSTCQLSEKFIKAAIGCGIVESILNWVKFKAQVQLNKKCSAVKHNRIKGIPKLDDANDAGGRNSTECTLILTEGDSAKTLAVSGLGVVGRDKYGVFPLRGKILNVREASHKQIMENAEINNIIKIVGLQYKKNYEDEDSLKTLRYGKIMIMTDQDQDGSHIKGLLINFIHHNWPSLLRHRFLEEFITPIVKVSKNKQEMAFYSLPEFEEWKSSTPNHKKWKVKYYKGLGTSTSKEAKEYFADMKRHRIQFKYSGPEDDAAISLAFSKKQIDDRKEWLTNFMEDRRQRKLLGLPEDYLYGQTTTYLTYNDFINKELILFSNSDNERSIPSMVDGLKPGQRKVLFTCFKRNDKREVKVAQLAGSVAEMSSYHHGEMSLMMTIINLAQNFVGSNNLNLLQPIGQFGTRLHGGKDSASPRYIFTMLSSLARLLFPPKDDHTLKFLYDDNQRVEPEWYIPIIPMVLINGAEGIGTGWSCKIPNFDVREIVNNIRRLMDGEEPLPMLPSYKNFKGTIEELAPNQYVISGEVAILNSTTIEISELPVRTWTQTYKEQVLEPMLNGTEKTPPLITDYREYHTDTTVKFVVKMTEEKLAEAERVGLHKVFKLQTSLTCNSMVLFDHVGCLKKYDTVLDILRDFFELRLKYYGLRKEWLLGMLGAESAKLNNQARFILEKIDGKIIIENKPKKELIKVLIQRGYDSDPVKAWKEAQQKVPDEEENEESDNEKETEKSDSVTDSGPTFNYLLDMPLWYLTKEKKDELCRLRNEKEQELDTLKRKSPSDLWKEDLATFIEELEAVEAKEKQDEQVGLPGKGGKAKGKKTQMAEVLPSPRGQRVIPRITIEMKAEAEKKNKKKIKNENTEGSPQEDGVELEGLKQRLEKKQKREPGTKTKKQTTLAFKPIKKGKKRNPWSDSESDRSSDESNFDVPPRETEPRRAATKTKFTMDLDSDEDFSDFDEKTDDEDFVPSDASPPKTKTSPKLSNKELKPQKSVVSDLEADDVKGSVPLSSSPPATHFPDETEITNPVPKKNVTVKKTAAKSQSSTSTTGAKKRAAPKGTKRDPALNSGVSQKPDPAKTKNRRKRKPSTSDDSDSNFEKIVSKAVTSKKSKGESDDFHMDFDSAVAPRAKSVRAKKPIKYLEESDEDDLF

[17] = target: Voltage-gated inwardly rectifying potassium channel KCNH2 (Homo sapiens, UniProt Q12809); assay: Inhibition of human ERG expressed in CHO cells by Q-patch clamp assay
Voltage-gated inwardly rectifying potassium channel KCNH2, sequence (Q12809 whole entry): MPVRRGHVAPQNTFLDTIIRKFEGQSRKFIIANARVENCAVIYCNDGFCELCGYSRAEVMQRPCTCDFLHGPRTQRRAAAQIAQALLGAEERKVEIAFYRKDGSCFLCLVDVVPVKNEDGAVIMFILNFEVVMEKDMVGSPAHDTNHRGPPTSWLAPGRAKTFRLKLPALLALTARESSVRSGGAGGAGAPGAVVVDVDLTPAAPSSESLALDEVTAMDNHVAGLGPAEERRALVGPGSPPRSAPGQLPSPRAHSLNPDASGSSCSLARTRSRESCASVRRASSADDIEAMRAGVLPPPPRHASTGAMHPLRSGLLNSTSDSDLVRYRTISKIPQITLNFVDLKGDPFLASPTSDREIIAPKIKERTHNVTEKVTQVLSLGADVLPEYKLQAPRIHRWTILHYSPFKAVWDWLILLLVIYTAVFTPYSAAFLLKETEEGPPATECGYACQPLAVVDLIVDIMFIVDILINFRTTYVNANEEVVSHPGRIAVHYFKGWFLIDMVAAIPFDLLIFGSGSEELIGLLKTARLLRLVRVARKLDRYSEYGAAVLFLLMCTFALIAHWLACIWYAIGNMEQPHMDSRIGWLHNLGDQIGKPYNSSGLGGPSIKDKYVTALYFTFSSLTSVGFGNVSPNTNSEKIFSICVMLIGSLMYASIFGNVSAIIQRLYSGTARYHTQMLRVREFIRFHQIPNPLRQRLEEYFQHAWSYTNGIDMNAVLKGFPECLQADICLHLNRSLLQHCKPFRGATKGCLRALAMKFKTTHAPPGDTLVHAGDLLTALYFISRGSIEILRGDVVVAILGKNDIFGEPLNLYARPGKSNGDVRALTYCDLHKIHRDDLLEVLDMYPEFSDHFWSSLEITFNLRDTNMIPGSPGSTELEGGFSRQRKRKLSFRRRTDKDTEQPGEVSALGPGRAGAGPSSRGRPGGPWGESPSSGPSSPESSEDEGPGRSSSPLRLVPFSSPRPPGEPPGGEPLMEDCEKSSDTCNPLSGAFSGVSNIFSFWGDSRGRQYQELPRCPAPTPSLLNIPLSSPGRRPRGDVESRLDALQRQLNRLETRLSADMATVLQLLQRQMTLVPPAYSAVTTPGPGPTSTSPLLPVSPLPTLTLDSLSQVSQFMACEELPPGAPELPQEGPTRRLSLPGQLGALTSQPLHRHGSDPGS

[18] = Cytotoxicity against human HepG2 cells assessed as reduction in cell viability at 10 uM incubated for 48 hrs by CCK-8 assay; conditions: HepG2 cells
[19] = Cytotoxicity against human HepG2 cells assessed as reduction in cell viability at 50 uM incubated for 48 hrs by CCK-8 assay; conditions: HepG2 cells
[20] = system: Clostridioides difficile; assay: Antibacterial activity against Clostridioides difficile ATCC 700057 by CLSI method; assay type: functional
[21] = system: Peptostreptococcus anaerobius; assay: Antibacterial activity against Peptostreptococcus anaerobius ATCC 27337 by CLSI method; assay type: functional
[22] = system: Bacteroides fragilis; assay: Antibacterial activity against Bacteroides fragilis ATCC 25285 by CLSI method; assay type: functional
[23] = system: Prevotella melaninogenica; assay: Antibacterial activity against Prevotella melaninogenica JCM6325 by CLSI method; assay type: functional
[24] = system: Porphyromonas gingivalis; assay: Antibacterial activity against Porphyromonas gingivalis JCM8525 by CLSI method; assay type: functional
[25] = system: Fusobacterium nucleatum; assay: Antibacterial activity against Fusobacterium nucleatum JCM8532 by CLSI method; assay type: functional
[26] = system: Enterococcus; assay: Antibacterial activity against Vancomycin-resistant Enterococcus by CLSI method; assay type: functional
[27] = system: Streptococcus pneumoniae; assay: Antibacterial activity against genotype penicillin-resistant Streptococcus pneumoniae by CLSI method; assay type: functional
[28] = Cmax in ICR mouse at 100 mg/kg, sc measured upto 24 hrs by LC-MS analysis; assay type: ADME, organism-based; parameters: route subcutaneous, dose 100 mg/kg, time 24 hrs; conditions: in vivo
[29] = Tmax in ICR mouse at 100 mg/kg, sc measured upto 24 hrs by LC-MS analysis; assay type: ADME, organism-based; conditions: in vivo
[30] = Half life in ICR mouse at 100 mg/kg, sc measured upto 24 hrs by LC-MS analysis; assay type: ADME, organism-based; conditions: in vivo
[31] = AUC (0 to 24 hrs) in ICR mouse at 100 mg/kg, sc measured upto 24 hrs by LC-MS analysis; assay type: ADME, organism-based; parameters: route subcutaneous, dose 100 mg/kg, time 24 hrs; conditions: in vivo
[32] = system: Escherichia coli; assay: Antibacterial activity against Escherichia coli ATCC 25922 in presence of PAbetaN by CLSI method; assay type: functional
[33] = target: DNA gyrase (Escherichia coli) (UniProt P0AES6+P0AES4); assay: Potency index, ratio of IC50 of 4-(8-(methylamino)-2-oxo-1,2-dihydroquinoline-3-carboxamido)benzoic acid to IC50 of compound for inhibition of Escherichia coli DNA gyrase incubated for 60 mins by fluorescence based assay; assay type: protein-complex assay
[34] = system: Escherichia coli; assay: Potency index, ratio of MIC of 4-(8-(methylamino)-2-oxo-1,2-dihydroquinoline-3-carboxamido)benzoic acid to MIC of compound for antibacterial activity against Escherichia coli ATCC 25922; assay type: functional

Compound: CNc1cc(F)cc2c(O)c(C(=O)Nc3ccc(C(=O)O)cc3)c(=O)[nH]c12
- inhibition [1]: 29%
- MIC50 [2]: 0.25 µg/mL (≈ 0.673 µM)
- MIC90 [2]: 0.25 µg/mL (≈ 0.673 µM)
- MIC [3]: 0.5 µg/mL (≈ 1.35 µM)
- MIC [4]: 0.25 µg/mL (≈ 0.673 µM)
- IC50 [5]: 1.1 nM
- IC50 [6]: 62.9 nM
- MIC [7]: 1 µg/mL (≈ 2.69 µM)
- MIC [8]: 0.25 µg/mL (≈ 0.673 µM)
- MIC [9]: 0.008 µg/mL (≈ 0.0215 µM)
- MIC [10]: 0.015 µg/mL (≈ 0.0404 µM)
- MIC [11]: 0.002 µg/mL (≈ 0.00539 µM)
- MIC [12]: 0.002 µg/mL (≈ 0.00539 µM)
- MIC [13]: 0.015 µg/mL (≈ 0.0404 µM)
- MIC [14]: 0.03 µg/mL (≈ 0.0808 µM)
- MIC [15]: ≤ 0.015 µg/mL
- IC50 [16]: > 100000 nM
- IC50 [17]: > 30000 nM
- cytotoxicity at 48 h, 10 µM [18]: 7.93%
- cytotoxicity at 48 h, 50 µM [19]: 25.2%
- MIC [20]: 0.25 µg/mL (≈ 0.673 µM)
- MIC [21]: 0.06 µg/mL (≈ 0.162 µM)
- MIC [22]: 8 µg/mL (≈ 21.5 µM)
- MIC [23]: > 32 µg/mL
- MIC [24]: 0.25 µg/mL (≈ 0.673 µM)
- MIC [25]: 0.12 µg/mL (≈ 0.323 µM)
- MIC50 [26]: 0.008 µg/mL (≈ 0.0215 µM)
- MIC90 [26]: 0.015 µg/mL (≈ 0.0404 µM)
- MIC50 [27]: 0.03 µg/mL (≈ 0.0808 µM)
- MIC90 [27]: 0.06 µg/mL (≈ 0.162 µM)
- Cmax [28]: 12400 ng/mL
- Tmax [29]: 0.25 h
- half-life [30]: 6.79 h
- AUC(0-t) at 24 h [31]: 16000 ng·h/mL

Compound: CNc1cc(F)cc2cc(C(=O)Nc3ccc(C(=O)O)cc3)c(=O)[nH]c12
- MIC [3]: 8 µg/mL (≈ 22.5 µM)
- MIC [4]: 8 µg/mL (≈ 22.5 µM)
- IC50 [5]: 0.36 nM
- IC50 [6]: 219 nM
- MIC [7]: 16 µg/mL (≈ 45 µM)
- MIC [32]: 0.015 µg/mL
- MIC [8]: 4 µg/mL (≈ 11.3 µM)
- MIC [9]: 0.03 µg/mL (≈ 0.0844 µM)
- MIC [10]: 0.015 µg/mL (≈ 0.0422 µM)
- MIC [11]: 0.015 µg/mL (≈ 0.0422 µM)
- MIC [12]: 0.015 µg/mL (≈ 0.0422 µM)
- MIC [13]: 0.03 µg/mL (≈ 0.0844 µM)
- MIC [14]: 0.06 µg/mL (≈ 0.169 µM)
- MIC [15]: 0.03 µg/mL (≈ 0.0844 µM)
- Ratio IC50 [33]: 5
- Ratio [34]: 4
